In US12440519B2 (Iowa State University Research Foundation, Inc., priority 2017, dated 2025):

Assays:
L-DOPA decarboxylase = test: Carbidopa inhibition of dopamine production by ML1082 in sSIM; assay type: cell-based, E. faecium; conditions: strain ML1082, sSIM
Protocol: A L-DOPA rich diet or a commonly prescribed 100 mg dose of L-DOPA would yield a concentration of about 1.0×10^−3 M concentration in sSIM. It follows then that a tablet that has 1:10 Carbidopa:L-DOPA tablet would likely result in a Carbidopa concentration of approximately 1/10th that on the order of 1.0×10^−4M (−log [Carbidopa]=4).
The IC50 was similar to the L-DOPA concentration of 1.26×10^−3 M, a finding that may indicate a competitive inhibitory mechanism for the bacterial enzyme.

[1] = mice, L-DOPA source in feed
Protocol: Feed was prepared in one of two ways depending on the source of L-DOPA. […] For purified L-DOPA, 1 g of purified L-DOPA is mixed in a 1:200 ratio with the feed powder. The mixed feed is then added to additional feed powder in a 1:4 ratio, creating a 1 mg/g L-DOPA feed.
For the 12-day trial 10 mice were placed in each group of control mice given feed plus the PBS gavage, a probiotic supplemented diet of normal feed plus a 1×10^9 CFU gavage of ML1082, and a synbiotic diet of feed with 1 mg/g supplemented pure L-DOPA and a 1×10^9 CFU gavage of ML1082. Behavioral testing was performed on days 11 and 12 (see below), followed by sacrifice and sample collection for UHPLC-ECD as above.

circular muscle = conditions: read-out: EC50, induced contractions; cited from earlier work
longitudinal muscle = conditions: read-out: EC50, relaxation; cited from earlier work
E. coli = tested on: E. coli
From the text: Although this is a well-established finding, the chemical-mechanistic effects of catecholamines on prokaryotes are relatively poorly understood. Neurochemical exposure has the potential not only to alter growth profiles and behavior, but it also appears to trigger the production of unique chemicals.

distal colon = conditions: read-out: EC50 of maximal response; cited from earlier work

SMILES: C[C@@](Cc1ccc(O)c(O)c1)(NN)C(=O)O [Carbidopa]
- inhibition of dopamine production (L-DOPA decarboxylase): dose-dependent inhibition

SMILES: N[C@@H](Cc1ccc(O)c(O)c1)C(=O)O [L-DOPA, L-3,4-dihydroxyphenylalanine]
- uptake of L-DOPA into the body before conversion by the probiotic [1]: absorbed into the body before it could interact with the probiotics

SMILES: NCCc1ccc(O)c(O)c1 [dopamine]
- EC50 (circular muscle): 6.3 µM
- EC50 (longitudinal muscle): 29 µM
- production of the dopamine-induced compound by E. coli (E. coli; LB supplied with dopamine, FIG. 6F): little if any of this compound
- chemical response of E. coli (E. coli; sSIM spiked with 0.001 M dopamine): novel chemical response
- EC50 (distal colon): 20 µM
